Like-named read-outs stand apart in the source and are kept apart here.
Assays:
Test in all cases: microbe, parasite or virus in culture
Format in all cases: cell-based
[1] = tested on: HCV 3a RLuc cells (NS5A chimeric genotype 1b Con1 replicon with consensus genotype 3a NS5A gene)
Procedure: (§1) Evaluation of cell-based anti-HCV activity: Antiviral potency (EC50) was determined using a Renilla luciferase (RLuc)-based HCV replicon reporter assay. To perform the assay for genotype 1 and 2a JFH-1, HCV 1b RLuc cells (harboring a dicistronic genotype 1b Con1 replicon that encodes a RLuc reporter), or HCV 1a RLuc cells (harboring a dicistronic genotype 1a H77 replicon that encodes a RLuc reporter), or HCV 2a JFH-1 Rluc cells (harboring a dicistronic genotype 2a JFH-1 replicon that encodes a RLuc reporter) were dispensed into 384-well plates. To perform the assay for genotype 2a (with M31 present) or 2b, HCV 2a Rluc or 2b Rluc cells (both with M31 present) harboring a dicistronic NS5A chimeric genotype 2a JFH-1 replicon that encodes a RLuc reporter and either genotype 2a J6 strain NS5A gene or genotype 2b MD2b-1 NS5A gene (based on Los Alamos HCV database isolates, both with M31 present) respectively, were dispensed into 384-well plates. To perform the assay for genotype 3 and 4, HCV 3a RLuc or 4a Rluc cells harboring a dicistronic NS5A chimeric genotype 1b Con1 replicon that encodes a RLuc reporter and either a consensus genotype 3a NS5A gene or genotype 4a NS5A gene (based on Los Alamos HCV database isolates) respectively, were dispensed into 384-well plates. Compounds were re-suspended in DMSO at a concentration of 10 mM and serially diluted in DMSO either manually or using an automated pipeting instrument. Serially diluted compounds were mixed with cell culture media and added to the seeded cells. […] 72 hours later, cells were lysed and Renilla luciferase activity quantified as recommended by the manufacturer (Promega-Madison, Wis.). Non-linear regression was performed to calculate EC50 values.

[2] = tested on: HCV 1b RLuc cells (dicistronic genotype 1b Con1 replicon, RLuc reporter)
Procedure: as §1

[3] = tested on: HCV 1a RLuc cells (dicistronic genotype 1a H77 replicon, RLuc reporter); conditions: genotype 1a H77 replicon, read-out: 1a
Procedure: as §1

[4] = tested on: HCV 2a JFH-1 Rluc cells (dicistronic genotype 2a JFH-1 replicon, RLuc reporter); conditions: genotype 2a JFH-1 replicon, read-out: 2a JFH
Procedure: as §1

[5] = Hepatitis C virus, read-out: 3a, genotype 3a NS5A chimeric 1b Con1 replicon
[6] = Hepatitis C virus, read-out: 1b (nM)
[7] = Hepatitis C virus, RLuc reporter
[8] = Hepatitis C virus, 72 h, Table 2, 72 hours

## COC(=O)N[C@H](C(=O)N1CCC[C@H]1c1ncc(-c2ccc3cc(-c4ccc(-c5cnc([C@@H]6CCCN6C(=O)[C@@](C)(NC(=O)OC)c6ccccc6)[nH]5)cc4)ccc3c2)[nH]1)C(C)C [Example 163]
[1]; [5]
  EC50: > 5 nM
[2]; [6]
  EC50: 0.031 nM
[3]; [7]
  EC50: 1 to 44 nM
[4]; [7]
  EC50: 1 to 44 nM

## COC(=O)N[C@H](C(=O)N1C[C@H](C#N)C[C@H]1c1ncc(-c2ccc3cc(-c4ccc(-c5cnc([C@@H]6CCCN6C(=O)[C@@H](c6ccccc6)N(C)C)[nH]5)cc4)ccc3c2)[nH]1)C(C)C [Example 144]
[1]; [5]
  EC50: 0.001 to 0.99 nM
[2]; [6]
  EC50: 0.013 nM
[3]; [7]
  EC50: 0.001 to 0.999 nM
[4]; [7]
  EC50: 0.001 to 0.999 nM

## COC(=O)N[C@H](C(=O)N1CCC[C@H]1c1ncc(-c2ccc3cc(-c4ccc(-c5cnc([C@@H]6CCCN6C(=O)C6(NC(=O)OC)Cc7ccccc7C6)[nH]5)cc4)ccc3c2)[nH]1)C(C)C [Example 191]
[1]; [5]
  EC50: > 5 nM
[2]; [6]
  EC50: 0.253 nM
[3]; [7]
  EC50: 1 to 44 nM
[4]; [7]
  EC50: > 44 nM

## COC(=O)N[C@H](C(=O)N1CCC[C@H]1c1ncc(-c2ccc(-c3ccc4cc(-c5cnc([C@@H]6CCCN6C(=O)C(c6ccccc6)N6CCCC6)[nH]5)ccc4c3)cc2)[nH]1)C(C)C (stereo partly drawn) [Example 125]
[1]; [5]
  EC50: 0.001 to 0.99 nM
[2]; [6]
  EC50: 0.032 nM
[3]; [7]
  EC50: 0.001 to 0.999 nM
[4]; [7]
  EC50: 0.001 to 0.999 nM

## COC(=O)N[C@H](C(=O)N1CCC[C@H]1c1ncc(-c2ccc3cc(-c4ccc(-c5cnc([C@@H]6CCCN6C(=O)C(c6ccccc6)N(C)C)[nH]5)cc4)ccc3c2)[nH]1)C(C)C (stereo partly drawn) [Example 134]
[1]; [5]
  EC50: 0.001 to 0.99 nM
[2]; [6]
  EC50: 0.007 nM
[3]; [7]
  EC50: 0.001 to 0.999 nM
[4]; [7]
  EC50: 0.001 to 0.999 nM

## COC(=O)N[C@H](C(=O)N1CCC[C@H]1c1ncc(-c2ccc(-c3ccc4cc(-c5cnc([C@@H]6CCCN6C(=O)[C@@H](NC(=O)OC)C(C)C)[nH]5)ccc4c3)cc2)[nH]1)c1cccnc1 [Example 160]
[1]; [5]
  EC50: 0.001 to 0.99 nM
[2]; [6]
  EC50: 0.017 nM
[3]; [7]
  EC50: 0.001 to 0.999 nM
[4]; [7]
  EC50: 0.001 to 0.999 nM

## COC(=O)N[C@H](C(=O)N1CCC[C@H]1c1ncc(-c2ccc3cc(-c4ccc(-c5cnc([C@@H]6CCCN6C(=O)[C@](C)(NC(=O)OC)c6ccccc6)[nH]5)cc4)ccc3c2)[nH]1)C(C)C [Example 162]
[1]; [5]
  EC50: 1 to 4.99 nM
[2]; [6]
  EC50: 0.01 nM
[3]; [7]
  EC50: 1 to 44 nM
[4]; [7]
  EC50: 1 to 44 nM

## COC(=O)NC(C(=O)N1CC2(C[C@H]1c1nc3c([nH]1)-c1ccc(-c4ccc5c(ccc6nc([C@@H]7CCCN7C(=O)[C@@H](NC(=O)OC)C(C)C)[nH]c65)c4)cc1CC3)OCCO2)C1CCOCC1 (stereo partly drawn) [Example 87]
[1]; Hepatitis C virus, read-out: 3a, Table 2, genotype 3a NS5A chimeric replicon
  EC50: 0.001 to 0.99 nM
[2]; Hepatitis C virus, 72 h, read-out: 1b (nM)
  EC50: 0.163 nM
[3]; [8]
  EC50: 0.001 to 0.999 nM
[4]; [8]
  EC50: 0.001 to 0.999 nM

## COC(=O)N[C@@H](C)C(=O)N1CCC[C@H]1c1ncc(-c2ccc3cc(-c4ccc(-c5cnc([C@@H]6CCCN6C(=O)[C@H](NC(=O)OC)c6ccccc6)[nH]5)cc4)ccc3c2)[nH]1 [Example 164]
[1]; [5]
  EC50: 0.001 to 0.99 nM
[2]; [6]
  EC50: 0.01 nM
[3]; [7]
  EC50: 0.001 to 0.999 nM
[4]; [7]
  EC50: 0.001 to 0.999 nM

## COC(=O)N[C@H](C(=O)N1CCC[C@H]1c1ncc(-c2ccc3cc(-c4ccc(-c5cnc([C@@H]6CCCN6C(=O)[C@H](NC(=O)OC)c6ccccc6F)[nH]5)cc4)ccc3c2)[nH]1)C(C)C [Example 149]
[1]; read-out: 3a, genotype 3a NS5A chimeric 1b Con1 replicon
  EC50: 0.001 to 0.99 nM
[2]; read-out: 1b
  EC50: 0.005 nM
[3]; RLuc reporter
  EC50: 0.001 to 0.999 nM
[4]; RLuc reporter
  EC50: 0.001 to 0.999 nM

## COC(=O)N[C@H](C(=O)N1CCC[C@H]1c1nc2c([nH]1)-c1ccc(-c3ccc4cc(-c5cnc([C@@H]6CCCN6C(=O)[C@@H](NC(=O)OC)C6CCOCC6)[nH]5)ccc4c3)cc1CC2)C(C)C [Example 209]
[1]; [5]
  EC50: 0.001 to 0.99 nM
[2]; [6]
  EC50: 0.014 nM
[3]; [7]
  EC50: 0.001 to 0.999 nM
[4]; [7]
  EC50: 0.001 to 0.999 nM

## COC(=O)N[C@H](C(=O)N1CCC[C@H]1c1ncc(-c2ccc(-c3ccc4cc(-c5cnc([C@@H]6CCCN6C(=O)[C@@H](NC(=O)OC)C(C)C)[nH]5)ccc4c3)cc2)[nH]1)c1ccc(Cl)cc1 [Example 106]
[1]; [5]
  EC50: 1 to 4.99 nM
[2]; [6]
  EC50: 0.024 nM
[3]; [7]
  EC50: 1 to 44 nM
[4]; [7]
  EC50: 1 to 44 nM
